15 molecules from paper PMC9773353 (ACS Omega, 2022) can be followed below.

As a reminder, the IC50 is the concentration needed to halve the response being measured. Low readings indicate greater potency, high ones weaker potency. As usually defined, the viability is the share of living cells, or the viability signal relative to a control. A higher viability goes with better survival.

Where “and” joins values, the source holds several entries; their conditions need not be identical. Equal entries are not always repeated.

For one data set, the target named is hCA XII (Homo sapiens, UniProt O43570). Nature of the data set: Carbonic anhydrase inhibition assay. In kind it is biochemical.
Chain of hCA XII (O43570 25-354): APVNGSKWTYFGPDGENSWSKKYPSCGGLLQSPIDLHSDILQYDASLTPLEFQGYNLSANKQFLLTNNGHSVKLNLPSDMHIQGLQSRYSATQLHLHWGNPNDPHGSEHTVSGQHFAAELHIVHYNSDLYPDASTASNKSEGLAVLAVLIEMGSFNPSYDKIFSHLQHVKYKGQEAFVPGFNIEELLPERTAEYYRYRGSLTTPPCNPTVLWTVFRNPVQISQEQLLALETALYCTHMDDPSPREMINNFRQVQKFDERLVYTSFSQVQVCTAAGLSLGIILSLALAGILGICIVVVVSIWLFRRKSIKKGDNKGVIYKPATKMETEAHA
Another data set addresses hCA IX (Homo sapiens, UniProt Q16790). Briefly: biochemical.
The target in a further data set is hCA II (Homo sapiens, UniProt P00918). Briefly: Carbonic anhydrase inhibition assay. The format is biochemical. To be noted: for IC50: IC50 ± SEM hCA II, mean of three independent experiments; for inhibition of hCA-II in words: text grading of Table 4 results.
Data set [1] in a line: MTT cell viability assay, HEK-293 T normal cells. The format is cell-based. As to conditions: human, HEK-293 T normal cells; for viability at 100 µM: % cell viability ± SD (HEK-293 T cells), 24–48 h incubation, MTT, vs untreated control. For orientation: Tetrazolium dyes change colour on reduction, which living cells bring about.
Another data set deals with BHK-21 normal cells. Nature of the data set: MTT cell viability assay, BHK-21 normal cells. In kind it is cell-based. To be noted: 100 μM, 24–48 h incubation; for % cell viability ± SD (BHK-21 cells): vs untreated control.
A further data set relates to HEK-293 T normal cells. Briefly: MTT cell viability assay, HEK-293 T normal cells. The format is cell-based. As to conditions: 100 μM, 24–48 h incubation, MTT; for % cell viability ± SD (HEK-293 T cells): vs untreated control.

`COc1ccc(C(=O)NC(=S)Nc2cc([N+](=O)[O-])ccc2Cl)cc1OC` [Compound 22, N-((2-Chloro-5-nitrophenyl)carbamothioyl)-3,4-dimethoxybenzamide]: the 50% inhibitory concentration (IC50) was 4290 ± 240 nM at hCA XII, 4930 ± 1830 nM against hCA IX and 260 ± 30 nM against hCA II. The same molecule registered a cytotoxicity at 100 µM in data set [1] of 9 ± 0.05%. In data set [1], this molecule had a viability at 100 µM greater than 90%.

Turning to `COc1ccc(C(=O)NC(=S)Nc2cc(Cl)c(S(N)(=O)=O)cc2S(N)(=O)=O)cc1OC` [Compound 17, N-((5-Chloro-2,4-disulfamoylphenyl)carbamothioyl)-3,4-dimethoxybenzamide], half-maximal inhibition at hCA IX (IC50) required 1710 ± 650 nM. For the same molecule, on hCA II, the half-maximal inhibitory concentration (IC50) was 11500 ± 160 nM and the “inhibition of hCA-II in words” value is “moderate inhibition”. Besides, in data set [1], the cytotoxicity at 100 µM is 3 ± 0.04% and the viability at 100 µM was 97 ± 0.3%.

For the molecule `Cc1cc(C)cc(C(=O)Nc2cc([N+](=O)[O-])ccc2Cl)c1` [Compound 14, N-(2-Chloro-5-nitrophenyl)-3,5-dimethylbenzamide], the IC50 against hCA XII came out at 950 ± 80 nM. At hCA II, it took 6490 ± 630 nM to reach half-maximal inhibition (IC50) and the “inhibition of hCA-II in words” value was “moderate inhibition”. In data set [1], this molecule showed a cytotoxicity at 100 µM of 15 ± 0.4% and a viability at 100 µM of 85 ± 0.1%.

For `Cc1cc(C)cc(C(=O)Nc2cc(Cl)c(S(N)(=O)=O)cc2S(N)(=O)=O)c1` [Compound 11, N-(5-Chloro-2,4-disulfamoylphenyl)-3,5-dimethylbenzamide], the IC50 was 2990 ± 320 nM against hCA XII; 170 ± 50 nM against hCA IX; 1190 nM and 1180 nM against hCA II. Moreover, the cytotoxicity at 100 µM in data set [1] is 27 ± 0.06%. Further, the viability at 100 µM in data set [1] was determined as 72 ± 0.6%.

`Cc1cc(C)cc(C(=O)NC(=S)Nc2ccccc2O)c1` [Compound 24, N-((2-Hydroxyphenyl)carbamothioyl)-3,5-dimethylbenzamide]: the 50% inhibitory concentration (IC50) was found to be 9900 ± 660 nM against hCA XII, 1250 ± 20 nM on hCA IX and 1240 ± 960 nM on hCA II. In data set [1], this molecule displayed a cytotoxicity at 100 µM of 18 ± 0.03%. In data set [1], this molecule showed a viability at 100 µM of 81 ± 0.1%.

For the molecule `Cc1cc(C)cc(C(=O)NC(=S)Nc2cc(Cl)c(O)c(Cl)c2)c1` [Compound 26, N-((3,5-Dichloro-4-hydroxyphenyl)carbamothioyl)-3,5-dimethylbenzamide], at hCA XII, the IC50 was 2020 ± 280 nM. In addition, the IC50 on hCA IX came to 1280 ± 90 nM. Moreover, at hCA II, the IC50 turned out to be 4450 ± 110 nM and the “inhibition of hCA-II in words” value was “moderate inhibition”. In data set [1], this molecule yielded a cytotoxicity at 100 µM of 2 ± 0.06% and a viability at 100 µM greater than 90%.

At hCA IX, `Cc1ccc(C(=O)Nc2cccc(C(=O)O)c2)c(C)c1` [Compound 13, 3-(2,4-Dimethylbenzamido) Benzoic Acid] returned a half-maximal inhibitory concentration (IC50) of 10400 ± 1450 nM. For the same molecule, in data set [1], the cytotoxicity at 100 µM is 14 ± 0.09% and the viability at 100 µM was 86 ± 0.6%.

In the case of “N-((2-Hydroxyphenyl) carbamothioyl)-3,4-dimethoxybenzamide [Compound 20]”, in the data set on BHK-21 normal cells, the “% cytotoxicity ± SD (BHK-21 cells)” value amounted to 54.6 ± 0.02% and the “% cell viability ± SD (BHK-21 cells)” value was 45 ± 0.09%. Besides, the “inhibition of hCA-II in words” value against hCA II is reported as “did not show any inhibition”. In addition, in the data set on HEK-293 T normal cells, the “% cytotoxicity ± SD (HEK-293 T cells)” value came out at 13 ± 0.03% and the “% cell viability ± SD (HEK-293 T cells)” value was 86 ± 0.07%.

For the molecule “N-((3-Bromo-5-(trifluoromethyl) phenyl) carbamothioyl)-3,4-dimethoxybenzamide [Compound 23]”, the “% cytotoxicity ± SD (BHK-21 cells)” value in the data set with BHK-21 normal cells is listed as 65.0 ± 0.06%. In addition, the “inhibition of hCA-II in words” value against hCA II is listed as “did not show any inhibition”. Moreover, the “% cytotoxicity ± SD (HEK-293 T cells)” value with HEK-293 T normal cells amounted to 26 ± 0.06%.

Regarding `COc1ccc(C(=O)NC(=S)Nc2ccc(C(=O)O)cc2)cc1OC` [Compound 18, 4-(3-(3,4-Dimethoxybenzoyl)thioureido) Benzoic Acid], the IC50 on hCA XII stood at 1680 ± 150 nM. This molecule had a concentration for half-maximal inhibition (IC50) against hCA IX of 210 ± 90 nM. Further, on hCA II, inhibition was half-maximal at 4170 ± 290 nM (IC50) and the “inhibition of hCA-II in words” value is “moderate inhibition”. In data set [1], this molecule had a cytotoxicity at 100 µM of 24 ± 0.07% and a viability at 100 µM of 75%.

In turn, `Cc1ccc(C(=O)NC(=S)Nc2ccc(C(=O)O)cc2)c(C)c1` [Compound 25, 4-(3-(2,4-Dimethylbenzoyl)thioureido) Benzoic Acid] registered an IC50 at hCA IX of 9760 ± 1030 nM. For the same molecule, the IC50 against hCA II amounted to 380 ± 10 nM. For the same molecule, in data set [1], the cytotoxicity at 100 µM came out at 2 ± 0.02% and the viability at 100 µM is greater than 90%.

Turning to `Cc1cc(C)cc(C(=O)Nc2cc(Br)cc(C(F)(F)F)c2)c1` [Compound 15, N-(3-Bromo-5-(trifluoromethyl)phenyl)-3,5-dimethylbenzamide], the IC50 came to 1050 ± 110 nM against hCA XII and 1930 ± 150 nM against hCA II. Also, in data set [1], the cytotoxicity at 100 µM came out at 18 ± 0.6%. In addition, in data set [1], the viability at 100 µM was determined as 82 ± 0.6%.

Turning to `COc1ccc(C(=O)Nc2cc(Cl)c(O)c(Cl)c2)cc1OC` [Compound 12, N-(3,5-Dichloro-4-hydroxyphenyl)-3,4-dimethoxybenzamide], on hCA XII, the IC50 came to 580 ± 60 nM. For the same molecule, on hCA II, the “inhibition of hCA-II in words” value is recorded as “did not show any inhibition”. In data set [1], the cytotoxicity at 100 µM came out at 26.6 ± 0.06% and the viability at 100 µM is 73 ± 0.1%.

At hCA IX, `COc1ccc(C(=O)NC(=S)Nc2c(Cl)cc([N+](=O)[O-])cc2Br)cc1OC` [Compound 19, N-((2-Bromo-6-chloro-4-nitrophenyl)carbamothioyl)-3,4-dimethoxybenzamide] displayed an IC50 of 1010 ± 50 nM. Moreover, the half-maximal inhibitory concentration (IC50) at hCA II was 725 nM and 720 nM. In data set [1], the cytotoxicity at 100 µM was determined as 50 ± 0.08% and the viability at 100 µM was determined as 49 ± 0.6%.

In the case of “3-(3-(3,4-Dimethoxybenzoyl) thioureido) Benzoic Acid [Compound 21]”, in the data set with BHK-21 normal cells, the “% cytotoxicity ± SD (BHK-21 cells)” value is reported as 51.5 ± 0.06% and the “% cell viability ± SD (BHK-21 cells)” value amounted to 48 ± 0.1%. In the data set with HEK-293 T normal cells, the “% cytotoxicity ± SD (HEK-293 T cells)” value is 13 ± 0.05% and the “% cell viability ± SD (HEK-293 T cells)” value is on record as 86 ± 0.6%.
